The subject of assay [1] is NMDA-induced neurotoxicity in cultured cortical neurons. Description: Antagonism of NMDA-induced neurotoxicity in cultured neurons (LDH release). The assay is classed as cell-based, mouse (Swiss-Webster). The conditions noted are these: 500 μM NMDA, 30 minutes, LDH activity at 24 hours, mouse cortical neurons. As for the experimental part: Antagonism of NMDA-induced Neurotoxicityin Cultured Neurons
Preparation of Cultured Cortical Neurons
Pregnant, Swiss-Webster mice were obtained from Taconic Farms (Germantown, New York) and sacrificed 16 days post conception. Fetuses were removed and placed in a sterile dish containing Hank's balanced salt solution (HBSS), pH 7.4. Brain cortices were dissected, meninges were removed, the tissue was minced and placed into a solution of HBSS containing 0.25% (w/v) trypsin at 37° C. for 15 minutes. Tissue was then triturated with a sterile pasteur pipet, diluted with minimal essential media (Gibco 330-1430), pH 7.4, supplemented with 10% horse serum, 10% fetal calf serum, 2 mM 1-glutamine, 21 mM d-glucose, 2.2 g/L sodium bicarbonate, 1000 u/ml penicillin, and 1,000 μg/ml streptomycin. Cells were plated onto Falcon primaria 96 well plates at a final density of 50,000 cells/well and incubated at 37° C. in the presence of 5% (v/v) carbon dioxide. After 5 days, plating media was replaced with maintenance media containing minimal essential media (Gibco 330- 1430), pH 7.4, supplemented with 10% horse serum, 10% 1-glutamine, 21 mM d-glucose, 2.2 g/l sodium bicarbonate,1,000 U/ml penicillin, 1,000 μg/ml streptomycin, and 10 μM cytosine arabinoside. On days 7 and 10, media was replaced with maintenance media as above lacking the cytosine arabinoside. Experiments were conducted on day 13.
Neuroprotection Assessment
Day 13 cultured cortical neurons were washed twice with minimal essential media, pH 7.4 and then exposed for 30 minutes to 500 μM N-methyl-D-aspartic acid (NMDA) with or without varying concentrations of test agents. Dizocilpine (MK-801) at a final concentration of 10 μM MK-801 was routinely included as a positive control. MK-801 and test agents were prepared in minimal essential media supplemented with 21 mM d-glucose and 2.2 g/L sodium bicarbonate (MEM). After 30 minutes, media was replaced with MEM alone. Exposure of neurons to test agents was limited to the NMDA treatment period. Twenty-four hours after removal of NMDA, an aliquot of media from each well was removed for assessment of cell injury by determining lactate dehydrogenase (LDH) activity by. the method of Wroblewski and LaDue Proc. Soc. Exp. Biol. Med. 1955, 90, 210-213. The results are expressed as an IC50 (in nM) value (concentration causing 50% inhibition) for the antagonism of NMDA--inducedneurotoxicity.

In another assay the target is PCP recognition sites. The assay can be described thus: [3H]TCP Radioreceptor Assay (internal screen). The assay is classed as binding, rat (male Sprague-Dawley. Particulars: rat whole brain membranes, room temperature, 25 min; for pKi: ~1 nM [3H]TCP; for Percent inhibition, [3H]TCP (internal screen): @ 10 μM. As for the experimental part: [^3 H]TCP Radioreceptor Assay (internal screen)
[^3 H]TCP binding to PCP recognition sites was performed as described by Vignon et al. Brain Research 1983, 280, 194°197. Male Sprague-Dawley rats were sacrificed by decapitation, and whole brains were homogenized in 10 volumes (wt/vol) of cold Tris-HCl buffer (50 mM, pH 7.7) using a Brinkmann Polytron (setting 6, 30 sec). The homogenate was centrifuged at 40,000×g for 10 min at 4° C. The supernatant was decanted, and the homogenization and centrifugation steps were repeated twice as described above. Following this, the pellet was resuspended in Tris-HCl (5 mM, pH 7.7) at a tissue concentration of 0.5°0.75 g/ml, and one ml aliquots were frozen at -70° C. until use. The binding characteristics for PCP recognition sites were not altered by the freezing of membrane suspensions.
On the day of the assay, membrane aliquots were thawed, resuspended in fresh 5 mM Tris-HCl buffer at a tissue concentration of 1 mg/ml, and stored on ice until use. Each assay tube contained 100 μl of [^3 H]TCP at a final concentration of approximately 1 nM, 100 μl of various concentrations of the compounds of interest, 500 μl of the tissue suspension and 300 of buffer to a final assay volume of 1 ml and a final protein concentration of 0.5 mg/tube. Non-specific binding was defined by addition of a final concentration of 100 μM PCP to blank tubes. All tubes were incubated at room temperature for 25 min before termination of the reaction by rapid filtration over Whatman GF/B glass fiber filters that had been presoaked in a solution of 0.5% polyethylenimine for at least 1 hr prior to use. Filters were washed with three 4 ml volumes of cold Tris buffer. Following addition of scintillation cocktail, the amount of bound radioactivity was determined by liquid scintillation spectrometry using a Beckman LS 5000TA liquid scintillation counter with an efficiency for tritium of approximately 55% . Inhibition constants (Ki values) were calculated using the EBDA/LIGAND program (McPherson, J. Pharmacol. Meth. 1985, 14, 213-228), purchased from Elsevier/Biosoft, Inc. Results are reported as Ki values or as a percent (%) inhibition of binding at 10

The structures appear in SMILES notation. pIC50, pKi: −log10 of the molar value.

As usually defined, the pIC50 is −log10 of the IC50, conventionally taken in molar units. High values mean a low IC50, low ones a high IC50. What is called pKi is the Ki on a negative log10 scale, so that one unit is a factor of ten. A lower pKi goes with a large Ki. Regarding `CCOC1(OCC)C2c3cc([N+](=O)[O-])ccc3C([n+]3ccccc32)C1(C)C.[O-][Cl+3]([O-])([O-])[O-]` (stereo not drawn) [Example 46, 6,11-ethano-12,12-diethoxy-13,13-dimethyl-9-nitro-6,11-dihydrobenzo[b]quinolizinium perchlorate], the pIC50 in assay [1] is 4.82. This compound also showed a pKi on PCP recognition sites of 5.56.
For `CCOC1(OCC)C2c3c(Br)cccc3C([n+]3ccccc32)C1(C)C.[O-][Cl+3]([O-])([O-])[O-]` (stereo not drawn) [Example 29, 6,11-ethano-12,12-diethoxy-13,13-dimethyl-10-bromo-6,11-dihydrobenzo[b]quinolizinium perchlorate], in that order: 5.98 and 6.88.
`CCOC1(OCC)C2c3ccccc3C([n+]3ccccc32)C1(C)C.[O-][Cl+3]([O-])([O-])[O-]` (stereo not drawn) [1(a), 12,12-diethoxy-13,13-dimethyl-6,11-ethano-6,11-dihydrobenzo[b]quinolizinium perchlorate] had a pIC50 in assay [1] (Cortical neurone) of 7.77. The pKi on PCP recognition sites was 8.08.
For `CCOC1(OCC)C2(C)c3ccccc3C([n+]3ccccc32)C1(C)C.[O-][Cl+3]([O-])([O-])[O-]` (stereo not drawn) [Example 51, 6,11-ethano-12,12-diethoxy-13,13-dimethyl-11-methyl-6,11-dihydrobenzo[b]quinolizinium perchlorate], in that order: 7.49 and 7.95.
Compound `CCOC1(OCC)C2c3ccccc3C(C1C)[n+]1ccccc12` (single isomer, unassigned) [Example 37, 6,11-ethano-12,12-diethoxy-13-methyl-6,11-dihydrobenzo[b]quinolizinium] had a pIC50 in assay [1] (Cortical neurone) of 6.09.
`CCOC1(OCC)C2c3ccccc3C([n+]3c(C)cccc32)C1(C)C` (stereo not drawn) [27(b), 6,11-ethano-12,12-diethoxy-13,13-dimethyl-4-methyl-6,11-dihydrobenzo[b]quinolizinium chloride] had a negative logarithm of the Ki (pKi) at PCP recognition sites of 6.50.
Same read-out and setting: the result for `CCOC1(OCC)C2c3cccc(OC)c3C([n+]3ccccc32)C1(C)C` (stereo not drawn) [Example 16, 7-methoxy-12,12-diethoxy-13,13-dimethyl-6,11-ethano-6,11-dihydrobenzo[b]quinolizinium hexafluorophosphate] reads 5.73; that for `CCOC1(OCC)C2c3ccccc3C(C1Br)[n+]1ccccc12.[O-][Cl+3]([O-])([O-])[O-]` (stereo not drawn) [Example 36, 6,11-ethano-12,12-diethoxy-13-bromo-6,11-dihydrobenzo[b]quinolizinium perchlorate], 7.69; that for `CCOC1(OCC)C2c3c(O)cccc3C([n+]3ccccc32)C1(C)C.[O-][Cl+3]([O-])([O-])[O-]` (stereo not drawn) [15(b), 10-hydroxy-12,12-diethoxy-13,13-dimethyl-6,11-ethano-6,11-dihydrobenzo[b]quinolizinium perchlorate], 8.10.
For the compound `CCOC1(OCC)C2c3ccccc3C([n+]3ccccc32)C1(C)C` (stereo not drawn) [Example 3, 12,12-diethoxy-13,13-dimethyl-6,11-ethano-6,11-dihydrobenzo[b]quinolizinium hexafluorophosphate], the pKi at PCP recognition sites is 8.25.
Regarding `CCOC1(OCC)C2c3c(OC)ccc(OC)c3C([n+]3ccccc32)C1(C)C.[O-][Cl+3]([O-])([O-])[O-]` (stereo not drawn) [Example 52, 6,11-ethano-12,12-diethoxy-13,13-dimethyl-7,10-dimethoxy-6,11-dihydrobenzo[b]quinolizinium perchlorate], in the assay with PCP recognition sites, the “Percent inhibition, [3H]TCP (internal screen)” value (from here on “Percent inhibition, [3H]TCP”) was found to be 33%.
`CCOC1(OCC)C2c3ccccc3C([n+]3ccccc32)C1(OCC)OCC` (stereo not drawn) [Example 8, 12,12,13,13,-tetraethoxy-6,11-ethane-6,11-dihydrobenzo[b]quinolizinium perchlorate] showed a pKi at PCP recognition sites of 5.29.
Turning to `CC(=O)Oc1ccc(C(C)(C)C)c2c1C1[n+]3ccccc3C2C2(O[C@H](C)[C@@H](C)O2)C1(C)C` (stereo partly drawn) [Example 56, 6,11-ethano-12,12-(2R,3R-butanediolketal)-13,13-dimethyl-7-acetoxy-10-t-butyl-6,11-dihydrobenzo[b]quinolizinium perchlorate], the “Percent inhibition, [3H]TCP” value in the assay with PCP recognition sites is given as 24%.
Compound `CCOC1(OCC)C2c3cc(OC)ccc3C([n+]3ccccc32)C1(C)C` (single isomer, unassigned) [20(c), 9-methoxy-12,12-diethoxy-13,13-dimethyl-6,11-ethano-6,11-dihydrobenzo[b]quinolizinium chloride] showed a pKi on PCP recognition sites of 8.15.
Same read-out and setting: the result for `CCOC1(OCC)C2c3cc(C(F)(F)F)ccc3C([n+]3ccccc32)C1(C)C` (stereo not drawn) [23(b), 6,11-ethano-12,12-diethoxy-13,13-dimethyl-9-trifluoromethyl-6,11-dihydrobenzo[b]quinolizinium chloride] reads 6.39.
As to `CC(=O)Oc1ccc(C(C)(C)C)c2c1C1[n+]3ccccc3C2C2(O[C@H](C)C[C@@H](C)O2)C1(C)C` (stereo partly drawn) [Example 57, 6,11-ethano-12,12-(2R,4R-pentanediolketal)-13,13-dimethyl-7-acetoxy-10-t-butyl-6,11-dihydrobenzo[b]quinolizinium perchlorate], the “Percent inhibition, [3H]TCP” value in the assay with PCP recognition sites was 18%.
At PCP recognition sites, `CCOC1(OCC)CC2c3ccccc3C1c1cccc[n+]12` (stereo not drawn) [63(a), 12,12-Diethoxy-6,11-ethano-6,11-dihydrobenzo[b]quinolizinium bromide] gave a pKi of 5.44.
Same read-out and setting: the result for `CCOC1(OCC)C2c3cc(Cl)ccc3C([n+]3ccccc32)C1(C)C.[O-][Cl+3]([O-])([O-])[O-]` (stereo not drawn) [Example 26, 6,11-ethano-12,12-diethoxy-13,13-dimethyl-9-chloro-6,11-dihydrobenzo[b]quinolizinium perchlorate] reads 7.91; that for `CC1(C)C2c3ccccc3C(c3cccc[n+]32)C12OCCCO2` (stereo not drawn) [22(b), 6,11-ethano-12,12-(1,3-propanediolketal)-13,13-dimethyl-6,11-dihydrobenzo[b]quinolizinium chloride], 5.48.
Still for that read-out and setting: the result for `COC1(O[Si](C)(C)C)C2c3ccccc3C([n+]3ccccc32)C1(C)C.[O-][Cl+3]([O-])([O-])[O-]` (stereo not drawn) [Example 40, 6,11-ethano-12-methoxy-12-trimethylsilyloxy-13,13-dimethyl-6,11-dihydrobenzo[b]quinolizinium perchlorate] reads 5.80; that for `CCOC1(OCC)C2c3ccc(OC)cc3C([n+]3ccccc32)C1(C)C` (stereo not drawn) [25(b), 6,11-ethano-12,12-diethoxy-13,13-dimethyl-8-methoxy-6,11-dihydrobenzo[b]quinolizinium chloride], 6.83; that for `CCN(CC)C1C2c3ccccc3C(C1C)[n+]1ccccc12` (stereo not drawn) [Example 62, 6,11-ethano-12-(diethyl) amino-13-methyl-6,11-dihydrobenzo[b]quinoliziniumperchlorate], 4.91.
Same read-out and setting: with `CCOC1(OCC)C2c3ccccc3C(C1Cl)[n+]1ccccc12` (single isomer, unassigned) [Example 42, 6,11-ethano-12,12-diethoxy-13-chloroquinolizinium perchlorate] the figure was 6.50.
